Measured values published in US12103916B2, “Antifungal compounds” (University of Kentucky Research Foundation, priority 2016, dated 2024).
In brackets after ≈: the same amount, converted by molar mass. Read-outs that look alike come from different tables or passages of the source.

Legend:
[1] = test system: Aspergillus flavus ATCC MYA-3631; assay: MIC determination, strain K; format: cell-based; conditions: Table 2, all compounds and controls
Description: (§1) For all of our azole derivatives we report their MIC-0 values against C. albicans ATCC 10231 (strain A) and all Aspergillus strains (K-M), which correspond to complete growth inhibition of these fungi. […] The MIC values presented for these five control drugs were either tested herein or correspond to our previously published data^5, 16 as indicated in Table 1.
(§2) Antifungal activity in the absence or presence of serum.
(§3) It is important to note that all comparisons to follow will be done by using the MIC values reported in μg/mL as the data were collected that way. However, we also present in parentheses in Table 2 the corresponding values in micromolar.
(§4) In this manuscript, we performed all activity comparisons by using the MIC values reported in μg/mL (Note: the corresponding MIC values are also provided in μM into parentheses in Tables 1, 2, S1, and S2).

[2] = test system: Aspergillus nidulans ATCC 38163; assay: MIC determination, strain L; format: cell-based; conditions: ATCC38163, Table 2, strain L, all compounds and controls
Description: as §1, §2, §3, §4

C. albicans ATCC 64124 = assay: MIC determination, strain B; format: cell-based, Candida albicans; conditions: strain B, AmB; for MIC: Candida albicans, ATCC64124
Experimental: (§5) The antifungal activity of our new azole compounds 1-9 and 24-41 was first evaluated against a panel of seven Candida albicans strains (A-G), three non-albicans Candida strains […], and three Aspergillus strains (K-M) in a concentration range of 0.03-31.2 μg/mL (Table 1). […] For all of our azole derivatives we report their MIC-0 values against C. albicans ATCC 10231 (strain A) and all Aspergillus strains (K-M), which correspond to complete growth inhibition of these fungi. […] The commercially available antifungals AmB, FLC, ITC, POS, and VOR were used as reference drugs for comparison. The MIC values presented for these five control drugs were either tested herein or correspond to our previously published data^5, 16 as indicated in Table 1.
(§6) Antifungal activity in the absence or presence of serum. The antifungal activity of the newly prepared alkylated piperazine/morpholine-azole hybrids 16-28, of intermediate 14 that we used to verify that only final compounds exert antifungal activity, as well as that of alkylated piperazine/morpholine derivatives 1-10 were first evaluated against a panel of seven C. albicans (ATCC 10231 (A), ATCC 64124(R) (B), ATCC MYA-2876(S) (C), ATCC 90819(R) (D), ATCC MYA-2310(S) (E), ATCC MYA-1237(R) (F), and ATCC MYA-1003(R) (G)), three non-albicans Candida (C. glabrata ATCC 2001 (H), C. krusei ATCC 6258 (I), and C. parapsilosis ATCC 22019 (J)), and three Aspergillus (A. flavus ATCC MYA-3631 (K), A. nidulans ATCC 38163 (L), and A. terreus ATCC MYA-3633 (M)) strains using a concentration range of 0.03-31.3 μg/mL (Table 2).
as §3, with “Commercially available antifungal agents such as AmB, CAS, FLC, and VOR were used as positive controls for comparison. […] It” for “It”
(§7) We used the commercially available antifungal agents such as AmB, caspofungin (CAS), FLC, and VOR as positive controls for comparison. For derivatives 5-16 as well as the reference drugs AmB and CAS, we reported MIC-0 values, which correspond to no visible growth. […] In this manuscript, we performed all activity comparisons by using the MIC values reported in μg/mL (Note: the corresponding MIC values are also provided in μM into parentheses in Tables 1, 2, S1, and S2).

[3] = test system: Candida albicans ATCC 10231; assay: MIC determination, strain A; format: cell-based; conditions: for MIC: Candida albicans, ATCC10231
Description: as §1, §2, §3, §4

[4] = test system: C. albicans ATCC 90819(R); assay: MIC determination, strain D; format: cell-based, Candida albicans; conditions: strain D, AmB; for MIC: Candida albicans, ATCC90819
Experimental: as §5, §6
as §3, with “Commercially available antifungal agents such as AmB, CAS, FLC, and VOR were used as positive controls for comparison. […] It” for “It”
as §7

[5] = test system: C. albicans ATCC MYA-1003(R); assay: MIC determination, strain G; format: cell-based, Candida albicans; conditions: strain G, AmB; for MIC: Candida albicans
Description: as §1, §2, §3, §4

[6] = test system: Aspergillus terreus ATCC MYA-3633; assay: MIC determination, strain M; format: cell-based; conditions: for MIC: Aspergillus terreus
Description: as §1, §2, §3, §4

[7] = test system: C. albicans ATCC MYA-2310(S); assay: MIC determination, strain E; format: cell-based, Candida albicans; conditions: strain E, AmB; for MIC: Candida albicans
Experimental: as §5, §6
as §3, with “Commercially available antifungal agents such as AmB, CAS, FLC, and VOR were used as positive controls for comparison. […] It” for “It”
as §7

[8] = test system: Candida parapsilosis ATCC 22019; assay: MIC determination, strain J; format: cell-based; conditions: Lodderomyces parapsilosis, ATCC22019, Table 2, strain J, Ex.2 compounds, AmB, CAS
Experimental: as §5, §6
as §3, with “Commercially available antifungal agents such as AmB, CAS, FLC, and VOR were used as positive controls for comparison. […] It” for “It”
as §7

[9] = test system: C. albicans ATCC MYA-2876(S); assay: MIC determination, strain C; format: cell-based, Candida albicans; conditions: strain C, AmB; for MIC: Candida albicans
Experimental: as §5, §6
as §3, with “Commercially available antifungal agents such as AmB, CAS, FLC, and VOR were used as positive controls for comparison. […] It” for “It”
as §7

[10] = test system: C. albicans ATCC MYA-1237(R); assay: MIC determination, strain F; format: cell-based, Candida albicans; conditions: strain F, AmB; for MIC: Candida albicans
Description: as §1, §2, §3, §4

[11] = test system: Candida glabrata ATCC 2001; assay: MIC determination, strain H; format: cell-based; conditions: strain H, AmB; for MIC: Nakaseomyces glabratus, ATCC2001
Experimental: as §5, §6
as §3, with “Commercially available antifungal agents such as AmB, CAS, FLC, and VOR were used as positive controls for comparison. […] It” for “It”
as §7

Candida krusei ATCC 6258 = assay: MIC determination, strain I; format: cell-based; conditions: strain I, AmB; for MIC: Pichia kudriavzevii, ATCC6258
Experimental: as §5, §6
as §3, with “Commercially available antifungal agents such as AmB, CAS, FLC, and VOR were used as positive controls for comparison. […] It” for “It”
as §7

BEAS-2B cell line = assay: Cytotoxicity assay, BEAS-2B; conditions: Ex.1 series, 15.6 μg/mL
Experimental: The positive control consisted of cells treated with Triton X-100® (TX, 12.5% v/v). The negative control consisted of cells treated with DMSO (no drug).
The positive control consisted of cells treated with Triton X-100® (TX, 20% v/v, pink). The negative control consisted of cells treated with DMSO (no drug, green). The experiments were performed in duplicate.
In vitro cytotoxicity assay.

[12] = read-out: MIC (MIC-0), in parentheses
[13] = Table 2, Ex.2 compounds, CAS, read-out: MIC (MIC-0)
[14] = Table 2, Ex.2 compounds, CAS, read-out: MIC (MIC-0), in parentheses
[15] = Table 2, all compounds and controls

CC[C@H](C)C[C@H](C)CCCCCCCCC(=O)N[C@H]1C[C@@H](O)[C@@H](NCCN)NC(=O)[C@@H]2[C@@H](O)CCN2C(=O)[C@H]([C@H](O)CCN)NC(=O)[C@H]([C@H](O)[C@@H](O)c2ccc(O)cc2)NC(=O)[C@@H]2C[C@@H](O)CN2C(=O)[C@H]([C@@H](C)O)NC1=O [CAS, caspofungin]
MIC ([1]; read-out: MIC (MIC-0)): > 31.3 µg/mL
MIC [1, 12]: > 25.8 µM
MIC ([2]; read-out: MIC (MIC-0)): > 31.3 µg/mL
MIC [2, 12]: > 25.8 µM
MIC (C. albicans ATCC 64124; [13]): 0.24 µg/mL
MIC (C. albicans ATCC 64124; [14]): 0.2 µM
MIC ([3]; Table 2, strain A, Ex.2 compounds 1-10, 14, 16-28, AmB, CAS, no visible growth, read-out: MIC (MIC-0)): 0.975 µg/mL
MIC ([3]; Table 2, strain A, Ex.2 compounds, AmB, CAS, read-out: MIC (MIC-0), in parentheses): 0.8 µM
MIC [4, 13]: 0.12 µg/mL
MIC [4, 14]: 0.1 µM
MIC [5, 13]: 0.48 µg/mL
MIC [5, 14]: 0.4 µM
MIC ([6]; Table 2, all compounds and controls, read-out: MIC (MIC-0)): > 31.3 µg/mL
MIC ([6]; Table 2, all compounds and controls, read-out: MIC (MIC-0), in parentheses): > 25.8 µM
MIC [7, 13]: 0.12 µg/mL
MIC [7, 14]: 0.1 µM
MIC ([8]; read-out: MIC (MIC-0)): 1.95 µg/mL
MIC [8, 12]: 1.6 µM
MIC [9, 13]: 0.06 µg/mL
MIC [9, 14]: 0.05 µM
MIC [10, 13]: 0.24 µg/mL
MIC [10, 14]: 0.2 µM
MIC [11, 13]: 0.06 µg/mL
MIC [11, 14]: 0.05 µM
MIC (Candida krusei ATCC 6258; [13]): 0.48 µg/mL
MIC (Candida krusei ATCC 6258; [14]): 0.4 µM

C[C@@H]1[C@H](O)[C@@H](C)/C=C/C=C/C=C/C=C/C=C/C=C/C=C/[C@H](O[C@@H]2O[C@H](C)[C@@H](O)[C@H](N)[C@@H]2O)C[C@@H]2O[C@](O)(C[C@@H](O)C[C@@H](O)[C@H](O)CC[C@@H](O)C[C@@H](O)CC(=O)O[C@H]1C)C[C@H](O)[C@H]2C(=O)O [AmB, amphotericin B]
MIC (MIC-0) (C. albicans ATCC 64124; Table 1): 3.9 µg/mL (≈ 4.22 µM)
MIC (MIC-0) (C. albicans ATCC 64124; Table 2, Ex.2 compounds, CAS): 3.9 µg/mL (≈ 4.22 µM)
MIC (MIC-0), in parentheses (C. albicans ATCC 64124; Table 2, Ex.2 compounds, CAS): (4.2) micromolar
MIC (MIC-0) ([3]; Table 1, strain A, Ex.1 compounds 1-9, 24-41 and AmB, complete growth inhibition): 3.9 µg/mL (≈ 4.22 µM)
MIC (MIC-0) ([3]; Table 2, strain A, Ex.2 compounds 1-10, 14, 16-28, AmB, CAS, no visible growth): 3.9 µg/mL (≈ 4.22 µM)
MIC (MIC-0), in parentheses ([3]; Table 2, strain A, Ex.2 compounds, AmB, CAS): (4.2) micromolar
MIC, Candida albicans ATCC 10231 (A) (+10% FBS) ([3]; Table 3, Ex.2 compounds, +10% FBS): 7.8 µg/mL (≈ 8.44 µM)
MIC, Candida albicans ATCC 10231 (A) (no FBS) ([3]; Table 3, Ex.2 compounds, no FBS): 3.9 µg/mL (≈ 4.22 µM)
MIC (MIC-0) ([4]; Table 1): 0.975 µg/mL (≈ 1.06 µM)
MIC (MIC-0) ([4]; Table 2, Ex.2 compounds, CAS): 0.975 µg/mL (≈ 1.06 µM)
MIC (MIC-0), in parentheses ([4]; Table 2, Ex.2 compounds, CAS): (1.1) micromolar
MIC (MIC-0) ([5]; Table 1): 3.9 µg/mL (≈ 4.22 µM)
MIC (MIC-0) ([5]; Table 2, Ex.2 compounds, CAS): 3.9 µg/mL (≈ 4.22 µM)
MIC (MIC-0), in parentheses ([5]; Table 2, Ex.2 compounds, CAS): (4.2) micromolar
MIC (MIC-0) ([6]; Table 1, Ex.1 compounds and AmB, complete growth inhibition): 3.9 µg/mL (≈ 4.22 µM)
MIC (MIC-0) [6, 15]: 3.9 µg/mL (≈ 4.22 µM)
MIC (MIC-0), in parentheses [6, 15]: (4.2) micromolar
MIC (MIC-0) ([7]; Table 1): 1.95 µg/mL (≈ 2.11 µM)
MIC (MIC-0) ([7]; Table 2, Ex.2 compounds, CAS): 1.95 µg/mL (≈ 2.11 µM)
MIC (MIC-0), in parentheses ([7]; Table 2, Ex.2 compounds, CAS): (2.1) micromolar
MIC (MIC-0) ([9]; Table 1): 1.95 µg/mL (≈ 2.11 µM)
MIC (MIC-0) ([9]; Table 2, Ex.2 compounds, CAS): 1.95 µg/mL (≈ 2.11 µM)
MIC (MIC-0), in parentheses ([9]; Table 2, Ex.2 compounds, CAS): (2.1) micromolar
MIC (MIC-0) ([10]; Table 1): 3.9 µg/mL (≈ 4.22 µM)
MIC (MIC-0) ([10]; Table 2, Ex.2 compounds, CAS): 3.9 µg/mL (≈ 4.22 µM)
MIC (MIC-0), in parentheses ([10]; Table 2, Ex.2 compounds, CAS): (4.2) micromolar
cell survival (BEAS-2B cell line): 30%
MIC (MIC-0) ([11]; Table 1): 1.95 µg/mL (≈ 2.11 µM)
MIC (MIC-0) ([11]; Table 2, Ex.2 compounds, CAS): 1.95 µg/mL (≈ 2.11 µM)
MIC (MIC-0), in parentheses ([11]; Table 2, Ex.2 compounds, CAS): (2.1) micromolar
MIC (MIC-0) (Candida krusei ATCC 6258; Table 1): 3.9 µg/mL (≈ 4.22 µM)
MIC (MIC-0) (Candida krusei ATCC 6258; Table 2, Ex.2 compounds, CAS): 3.9 µg/mL (≈ 4.22 µM)
MIC (MIC-0), in parentheses (Candida krusei ATCC 6258; Table 2, Ex.2 compounds, CAS): (4.2) micromolar
